Source: PMC5933782, “Molecular structures of cdc2-like kinases in complex with a new inhibitor chemotype” (PLoS ONE, 2018)

How the values were obtained:
Experiment in all cases: radiometric protein kinase assay
GSK-3 = format: biochemical, porcine; conditions: for IC50: 15 μmol/L ATP, read-out: IC50 GSK3
DYRK1A = DYRK1A (Homo sapiens, UniProt Q13627); format: biochemical; conditions: for IC50: 15 μmol/L ATP, read-out: IC50 DYRK 1A
CLK3 = CLK3 (Mus musculus, UniProt O35492)
DYRK3 = target: T1, DYRK3 (Homo sapiens, UniProt O43781); format: biochemical; conditions: for IC50: 15 μmol/L ATP, read-out: IC50 DYRK 3
T1 sequence (O43781 1-588): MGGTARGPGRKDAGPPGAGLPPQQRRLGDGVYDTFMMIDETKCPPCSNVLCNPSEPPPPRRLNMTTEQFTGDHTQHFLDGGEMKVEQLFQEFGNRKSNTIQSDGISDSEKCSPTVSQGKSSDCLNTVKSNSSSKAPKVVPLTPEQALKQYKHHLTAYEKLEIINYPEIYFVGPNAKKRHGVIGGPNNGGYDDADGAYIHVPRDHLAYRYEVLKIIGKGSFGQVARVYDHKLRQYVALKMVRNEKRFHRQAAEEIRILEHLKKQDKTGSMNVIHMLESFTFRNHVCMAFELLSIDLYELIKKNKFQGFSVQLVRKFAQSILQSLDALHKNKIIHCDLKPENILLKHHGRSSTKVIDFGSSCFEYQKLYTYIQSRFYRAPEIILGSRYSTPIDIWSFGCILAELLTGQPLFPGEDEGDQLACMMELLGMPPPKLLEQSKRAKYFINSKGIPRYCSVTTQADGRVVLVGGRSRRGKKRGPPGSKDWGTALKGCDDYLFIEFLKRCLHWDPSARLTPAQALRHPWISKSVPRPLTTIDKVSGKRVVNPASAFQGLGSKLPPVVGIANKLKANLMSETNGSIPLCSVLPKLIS

CDK5/p25 = target: T2, CDK5/p25 (Homo sapiens, UniProt Q00535); format: biochemical; conditions: for IC50: 15 μmol/L ATP
T2 construct: made in house
T2 sequence (Q00535 whole entry): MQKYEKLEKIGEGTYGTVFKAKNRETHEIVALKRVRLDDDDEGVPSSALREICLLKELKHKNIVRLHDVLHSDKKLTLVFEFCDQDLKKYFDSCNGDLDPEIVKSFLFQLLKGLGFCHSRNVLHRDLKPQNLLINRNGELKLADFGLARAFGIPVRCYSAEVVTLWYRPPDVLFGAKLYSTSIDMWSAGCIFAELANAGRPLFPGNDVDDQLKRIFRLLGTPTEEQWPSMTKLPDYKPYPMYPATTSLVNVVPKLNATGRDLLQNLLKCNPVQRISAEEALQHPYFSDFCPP
T2 sequence (Q15078 99-307 partner limits assumed): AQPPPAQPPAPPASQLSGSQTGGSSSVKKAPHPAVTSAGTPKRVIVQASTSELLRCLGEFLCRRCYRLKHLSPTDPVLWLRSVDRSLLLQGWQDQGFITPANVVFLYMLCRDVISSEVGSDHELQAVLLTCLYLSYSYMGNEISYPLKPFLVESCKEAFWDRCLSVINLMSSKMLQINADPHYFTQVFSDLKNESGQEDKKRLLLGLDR

DYRK2 = target: T3, DYRK2 (Homo sapiens, UniProt Q92630); format: biochemical; conditions: for IC50: 15 μmol/L ATP, read-out: IC50 DYRK 2
T3 sequence (Q92630 1-601): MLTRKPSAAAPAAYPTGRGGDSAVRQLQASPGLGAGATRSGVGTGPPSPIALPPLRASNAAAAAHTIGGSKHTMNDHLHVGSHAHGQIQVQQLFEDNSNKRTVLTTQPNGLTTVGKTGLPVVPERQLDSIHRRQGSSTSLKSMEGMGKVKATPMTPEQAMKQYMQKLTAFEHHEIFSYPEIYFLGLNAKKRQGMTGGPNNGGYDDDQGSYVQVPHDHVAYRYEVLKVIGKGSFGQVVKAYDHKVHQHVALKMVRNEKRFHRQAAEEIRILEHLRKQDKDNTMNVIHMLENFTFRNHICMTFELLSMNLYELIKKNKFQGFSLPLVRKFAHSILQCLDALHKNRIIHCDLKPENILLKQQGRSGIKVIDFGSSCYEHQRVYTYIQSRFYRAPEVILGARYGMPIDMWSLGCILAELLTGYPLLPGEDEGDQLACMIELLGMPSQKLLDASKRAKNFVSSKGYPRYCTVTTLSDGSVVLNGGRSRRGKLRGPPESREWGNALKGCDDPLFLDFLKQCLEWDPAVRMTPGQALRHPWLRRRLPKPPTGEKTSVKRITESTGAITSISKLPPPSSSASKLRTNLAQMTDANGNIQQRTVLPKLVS

CDK9/cyclin T = CDK9/cyclin T (Homo sapiens, UniProt P50750)
CDK9/cyclin T, sequence (P50750 whole entry): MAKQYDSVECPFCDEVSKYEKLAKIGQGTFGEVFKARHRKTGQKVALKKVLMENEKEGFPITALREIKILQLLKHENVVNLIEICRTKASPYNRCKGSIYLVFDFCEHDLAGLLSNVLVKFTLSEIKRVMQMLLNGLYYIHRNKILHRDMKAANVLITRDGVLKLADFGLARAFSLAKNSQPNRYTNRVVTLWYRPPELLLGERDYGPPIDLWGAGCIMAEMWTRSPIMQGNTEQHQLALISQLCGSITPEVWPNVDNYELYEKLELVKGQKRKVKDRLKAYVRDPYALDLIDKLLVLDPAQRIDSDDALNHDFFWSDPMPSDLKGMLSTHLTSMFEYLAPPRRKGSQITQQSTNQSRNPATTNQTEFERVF
CDK9/cyclin T, sequence (O60563 whole entry partner): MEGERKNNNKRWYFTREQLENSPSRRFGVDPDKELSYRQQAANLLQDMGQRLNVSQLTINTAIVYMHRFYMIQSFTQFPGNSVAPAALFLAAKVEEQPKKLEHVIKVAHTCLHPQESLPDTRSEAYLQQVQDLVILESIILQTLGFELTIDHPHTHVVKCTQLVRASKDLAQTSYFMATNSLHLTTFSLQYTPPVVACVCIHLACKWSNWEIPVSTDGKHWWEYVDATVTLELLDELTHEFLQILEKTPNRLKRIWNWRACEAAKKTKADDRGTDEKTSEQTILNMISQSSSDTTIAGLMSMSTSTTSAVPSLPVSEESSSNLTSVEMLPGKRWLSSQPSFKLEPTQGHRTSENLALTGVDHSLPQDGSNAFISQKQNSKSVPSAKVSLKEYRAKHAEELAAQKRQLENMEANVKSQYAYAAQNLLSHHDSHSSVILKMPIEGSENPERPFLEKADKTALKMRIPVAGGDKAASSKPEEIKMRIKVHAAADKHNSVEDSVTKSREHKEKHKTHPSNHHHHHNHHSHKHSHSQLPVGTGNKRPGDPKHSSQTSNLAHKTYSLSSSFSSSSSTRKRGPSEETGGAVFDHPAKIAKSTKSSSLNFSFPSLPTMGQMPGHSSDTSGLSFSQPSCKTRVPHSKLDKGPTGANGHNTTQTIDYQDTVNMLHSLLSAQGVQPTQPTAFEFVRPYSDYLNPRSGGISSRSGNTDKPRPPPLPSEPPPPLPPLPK
Method: (§1) Buffers. Buffer A: 10 mM MgCl2, 1 mM EGTA, 1 mM DTT, 25 mM Tris-HCl pH 7.5, 50 μg heparin/mL. Buffer C: 60 mM β-glycerophosphate, 15 mM p-nitrophenylphosphate, 25 mM MOPS (pH 7.2), 15 mM EGTA, 15 mM MgCl2, 1 mM DTT, 1 mM sodium vanadate, 1 mM phenylphosphate.
(§2) Kinase activities were assayed in buffer A or C at 30°C at a final ATP concentration of 15 μmol/L. Blank values were subtracted and activities were expressed in percent of the maximal activity, i.e. in the absence of inhibitors. Controls were performed with appropriate dilutions of DMSO.
(§3) Their kinase activity was assayed in buffer A, with 1 mg histone H1/mL, in the presence of 15 μmol/L [γ-33P] ATP (3,000 Ci/mmol; 10 mCi/mL) in a final volume of 30 μL. After 30 min incubation at 30°C, the reaction was stopped by harvesting onto P81 phosphocellulose supernatant (Whatman) using a FilterMate harvester (Packard) and washing in 1% phosphoric acid. Scintillation fluid was added and the radioactivity measured in a Packard counter.
(§4) All data points for construction of dose response curves were recorded in triplicate.

CLK2 = CLK2 (Mus musculus, UniProt O35491)
CLK2, sequence (O35491 whole entry): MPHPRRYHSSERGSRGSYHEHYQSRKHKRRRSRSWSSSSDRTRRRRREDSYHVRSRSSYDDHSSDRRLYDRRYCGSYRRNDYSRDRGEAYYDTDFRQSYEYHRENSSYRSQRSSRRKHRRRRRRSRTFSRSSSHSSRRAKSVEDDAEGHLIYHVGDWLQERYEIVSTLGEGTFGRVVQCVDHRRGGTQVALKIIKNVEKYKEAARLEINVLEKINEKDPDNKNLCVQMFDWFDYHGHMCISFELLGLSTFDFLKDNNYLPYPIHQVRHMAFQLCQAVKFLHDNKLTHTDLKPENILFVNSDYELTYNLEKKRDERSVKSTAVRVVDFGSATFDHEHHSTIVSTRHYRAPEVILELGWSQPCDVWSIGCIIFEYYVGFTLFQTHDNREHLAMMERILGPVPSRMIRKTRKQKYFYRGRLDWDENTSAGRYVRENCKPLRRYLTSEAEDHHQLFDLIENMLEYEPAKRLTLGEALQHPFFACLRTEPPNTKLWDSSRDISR
Method: as §1, §2, §3, §4

CDK2/cyclin A = target: T4, CDK2/cyclin A (Homo sapiens, UniProt P24941); format: biochemical; conditions: for IC50: 15 μmol/L ATP, read-out: IC50 CDK2/cyclinA
T4 construct: made in house

CLK1 = CLK1 (Mus musculus, UniProt P22518)
CLK1, sequence (P22518 whole entry): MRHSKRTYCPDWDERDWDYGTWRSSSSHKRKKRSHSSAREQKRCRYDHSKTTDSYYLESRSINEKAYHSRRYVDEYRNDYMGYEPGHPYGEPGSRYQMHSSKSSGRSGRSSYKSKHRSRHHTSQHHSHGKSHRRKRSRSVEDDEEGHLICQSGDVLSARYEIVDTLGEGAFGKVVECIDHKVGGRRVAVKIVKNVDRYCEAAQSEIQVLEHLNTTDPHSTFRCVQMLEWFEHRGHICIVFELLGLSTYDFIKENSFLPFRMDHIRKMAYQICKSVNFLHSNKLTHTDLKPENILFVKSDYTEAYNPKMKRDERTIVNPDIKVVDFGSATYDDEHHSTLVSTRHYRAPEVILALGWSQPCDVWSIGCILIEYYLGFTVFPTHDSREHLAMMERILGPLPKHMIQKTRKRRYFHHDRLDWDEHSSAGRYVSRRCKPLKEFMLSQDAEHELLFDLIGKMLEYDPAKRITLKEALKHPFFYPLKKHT

CK1δ/ε = format: biochemical, porcine; conditions: for IC50: 15 μmol/L ATP, read-out: IC50 CK1
CLK4 = CLK4 (Mus musculus, UniProt O35493)
CLK4, sequence (O35493 whole entry): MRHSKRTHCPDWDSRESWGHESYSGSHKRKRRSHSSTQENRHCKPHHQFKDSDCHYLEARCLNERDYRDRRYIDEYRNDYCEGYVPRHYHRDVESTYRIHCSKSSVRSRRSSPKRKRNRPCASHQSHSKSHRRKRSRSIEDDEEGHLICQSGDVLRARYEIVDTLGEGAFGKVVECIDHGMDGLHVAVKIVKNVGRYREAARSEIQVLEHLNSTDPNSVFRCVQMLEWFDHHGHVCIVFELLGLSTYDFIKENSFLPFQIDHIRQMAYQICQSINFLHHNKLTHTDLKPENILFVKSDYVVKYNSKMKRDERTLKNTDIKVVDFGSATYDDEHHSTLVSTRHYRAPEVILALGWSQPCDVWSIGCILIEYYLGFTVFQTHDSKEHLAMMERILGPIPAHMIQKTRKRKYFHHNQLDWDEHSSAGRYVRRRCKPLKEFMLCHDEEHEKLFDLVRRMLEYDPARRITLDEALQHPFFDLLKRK
Method: as §1, §2, §3, §4

DYRK1B = DYRK1B (Homo sapiens, UniProt Q9Y463); format: biochemical; conditions: for IC50: 15 μmol/L ATP, read-out: IC50 DYRK 1B
DYRK1B, sequence (Q9Y463 whole entry): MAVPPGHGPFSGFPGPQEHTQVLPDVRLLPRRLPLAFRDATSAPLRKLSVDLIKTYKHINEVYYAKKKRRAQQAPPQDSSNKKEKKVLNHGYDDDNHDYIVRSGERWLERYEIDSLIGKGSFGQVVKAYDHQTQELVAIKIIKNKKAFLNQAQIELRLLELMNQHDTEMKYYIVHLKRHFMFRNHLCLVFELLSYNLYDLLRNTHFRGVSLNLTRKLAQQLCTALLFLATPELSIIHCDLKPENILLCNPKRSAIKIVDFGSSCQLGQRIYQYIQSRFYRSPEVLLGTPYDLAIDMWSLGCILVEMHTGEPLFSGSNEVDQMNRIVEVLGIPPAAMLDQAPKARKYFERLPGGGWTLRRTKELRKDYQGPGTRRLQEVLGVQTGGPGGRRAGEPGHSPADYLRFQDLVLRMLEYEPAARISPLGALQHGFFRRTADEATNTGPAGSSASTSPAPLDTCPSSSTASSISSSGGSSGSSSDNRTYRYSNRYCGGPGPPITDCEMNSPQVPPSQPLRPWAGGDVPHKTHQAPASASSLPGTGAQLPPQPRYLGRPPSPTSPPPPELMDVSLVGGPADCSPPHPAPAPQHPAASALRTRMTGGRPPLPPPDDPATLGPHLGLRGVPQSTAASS

CDK1/cyclin B = format: biochemical, starfish; conditions: for IC50: 15 μmol/L ATP

CLK3, sequence (O35492 whole entry): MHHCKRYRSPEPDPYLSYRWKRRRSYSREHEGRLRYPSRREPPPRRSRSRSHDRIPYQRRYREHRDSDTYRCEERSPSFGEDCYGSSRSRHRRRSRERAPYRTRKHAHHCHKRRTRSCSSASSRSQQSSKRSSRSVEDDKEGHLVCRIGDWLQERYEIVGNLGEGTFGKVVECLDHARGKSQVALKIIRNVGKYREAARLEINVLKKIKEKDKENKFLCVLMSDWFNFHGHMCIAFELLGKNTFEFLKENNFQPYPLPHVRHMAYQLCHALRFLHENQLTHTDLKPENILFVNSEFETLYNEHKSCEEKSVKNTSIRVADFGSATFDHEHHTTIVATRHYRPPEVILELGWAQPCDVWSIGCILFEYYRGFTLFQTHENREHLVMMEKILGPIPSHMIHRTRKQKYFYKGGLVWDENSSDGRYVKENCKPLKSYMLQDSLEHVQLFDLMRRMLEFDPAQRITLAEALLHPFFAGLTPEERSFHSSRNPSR

For `O=C1NCc2ccc3c(-c4ccccc4)c[nH]c3c21` [8a, 3-Phenyl-6,7-dihydropyrrolo[3,4-g]indol-8(1H)-one], the “Residual enzyme activity GSK3” value (GSK-3; 10 µM concentration, ± SEM) was 111±19%, the IC50 (GSK-3) was over 10 µM and the remaining activity at 10 µM (DYRK1A; 10 µM concentration, ± SEM, read-out: Residual enzyme activity DYRK 1A) was 61 ± 12%. The IC50 (DYRK1A) was over 10 µM, the IC50 (CLK3) was over 10 µM and the remaining activity at 10 µM (CLK3; read-out: Residual enzyme activity CLK 3) was 78 ± 9%. For the same compound, the remaining activity at 10 µM (DYRK3; 10 µM concentration, ± SEM, read-out: Residual enzyme activity DYRK 3) was 102 ± 13%, the IC50 (DYRK3) was over 10 µM and the remaining activity at 10 µM (CDK5/p25; 10 µM concentration, ± SEM, read-out: Residual enzyme activity CDK5/p25) was 107 ± 20%. For the same compound, the IC50 (CDK5/p25) was over 10 µM, the remaining activity at 10 µM (DYRK2; 10 µM concentration, ± SEM, read-out: Residual enzyme activity DYRK 2) was 69 ± 15% and the IC50 (CDK9/cyclin T) was over 10 µM. For the same compound, the remaining activity at 10 µM (CDK9/cyclin T; read-out: Residual enzyme activity CDK9/cyclin T) was 85 ± 5%, the IC50 (CLK2) was 0.21 µM and the remaining activity at 10 µM (CLK2; read-out: Residual enzyme activity CLK 2) was 14 ± 3%. It also gave a remaining activity at 10 µM (CDK2/cyclin A; 10 µM concentration, ± SEM, read-out: Residual enzyme activity CDK2/cyclin A) of 101 ± 6%, an IC50 (CDK2/cyclin A) of over 10 µM and an IC50 (CLK1) of 0.046 µM. The remaining activity at 10 µM (CLK1; read-out: Residual enzyme activity CLK 1) was 8 ± 2%, the “Residual enzyme activity CK1” value (CK1δ/ε; 10 µM concentration, ± SEM) was 91±4% and the IC50 (CK1δ/ε) was over 10 µM. It also gave an IC50 (CLK4) of 0.12 µM, a remaining activity at 10 µM (CLK4; read-out: Residual enzyme activity CLK 4) of 2% and a remaining activity at 10 µM (DYRK1B; 10 µM concentration, ± SEM, read-out: Residual enzyme activity DYRK 1B) of 51 ± 9%. For the same compound, the IC50 (DYRK1B) was 4.8 µM, the “Residual enzyme activity CDK1/cyclin B” value (CDK1/cyclin B; 10 µM concentration, ± SEM) was 71±21% and the IC50 (CDK1/cyclin B) was over 10 µM.
`O=C1NCc2ccc3c(-c4ccc(Cl)cc4)c[nH]c3c21` [8d, 3-(4-Chlorophenyl)-6,7-dihydropyrrolo[3,4-g]indol-8(1H)-one] was tested, and the IC50 (GSK-3) was over 10 µM, the IC50 (DYRK1A) was over 10 µM and the IC50 (CLK3) was 1.8 µM. The IC50 (DYRK3) was over 10 µM, the IC50 (CDK5/p25) was over 10 µM and the IC50 (DYRK2) was 9.3 µM. For the same compound, the IC50 (CDK9/cyclin T) was over 10 µM, the IC50 (CLK2) was 0.17 µM and the IC50 (CDK2/cyclin A) was over 10 µM. For the same compound, the IC50 (CLK1) was 0.1 µM, the IC50 (CK1δ/ε) was over 10 µM and the IC50 (CLK4) was 0.13 µM. For the same compound, the IC50 (DYRK1B) was over 10 µM and the IC50 (CDK1/cyclin B) was over 10 µM.
With `O=C1NCc2ccc3c(-c4ccc(Cl)c(Cl)c4)c[nH]c3c21` [8e, 3-(3,4-Dichlorophenyl)-6,7-dihydropyrrolo[3,4-g]indol-8(1H)-one] the IC50 (GSK-3) was over 10 µM, the IC50 (DYRK1A) was over 10 µM and the IC50 (CLK3) was over 10 µM. It also gave an IC50 (DYRK3) of over 10 µM, an IC50 (CDK5/p25) of over 10 µM and an IC50 (DYRK2) of over 10 µM. It also gave an IC50 (CDK9/cyclin T) of over 10 µM, an IC50 (CLK2) of 0.69 µM and an IC50 (CDK2/cyclin A) of over 10 µM. For the same compound, the IC50 (CLK1) was 0.11 µM, the IC50 (CK1δ/ε) was over 10 µM and the IC50 (CLK4) was 0.13 µM. For the same compound, the IC50 (DYRK1B) was over 10 µM and the IC50 (CDK1/cyclin B) was over 10 µM.
Work on `O=C1NCc2ccc3c(-c4cccc(O)c4)c[nH]c3c21` [8g, 3-(3-Hydroxyphenyl)-6,7-dihydropyrrolo[3,4-g]indol-8(1H)-one] yielded an IC50 (GSK-3) of over 10 µM, an IC50 (DYRK1A) of 0.74 µM and an IC50 (CLK3) of 1.7 µM. It also gave an IC50 (DYRK3) of 2.2 µM, an IC50 (CDK5/p25) of over 10 µM and an IC50 (DYRK2) of 0.59 µM. It also gave an IC50 (CDK9/cyclin T) of 1.1 µM, an IC50 (CLK2) of 0.082 µM and an IC50 (CDK2/cyclin A) of over 10 µM. For the same compound, the IC50 (CLK1) was 0.044 µM, the IC50 (CK1δ/ε) was over 10 µM and the IC50 (CLK4) was 0.081 µM. It also gave an IC50 (DYRK1B) of 0.39 µM and an IC50 (CDK1/cyclin B) of over 10 µM.
In the case of `CC(=O)Oc1cccc(-c2c[nH]c3c4c(ccc23)CNC4=O)c1` [8h, 3-(8-Oxo-1,6,7,8-tetrahydropyrrolo[3,4-g]indol-3-yl)phenyl acetate], the IC50 (GSK-3) is reported as over 10 µM, the IC50 (DYRK1A) is reported as 1.4 µM and the IC50 (CLK3) is reported as 3.3 µM. It also gave an IC50 (DYRK3) of 6.1 µM, an IC50 (CDK5/p25) of over 10 µM and an IC50 (DYRK2) of 2.4 µM. The IC50 (CDK9/cyclin T) was over 10 µM, the IC50 (CLK2) was 0.32 µM and the IC50 (CDK2/cyclin A) was over 10 µM. It also gave an IC50 (CLK1) of 0.17 µM, an IC50 (CK1δ/ε) of over 10 µM and an IC50 (CLK4) of 0.13 µM. For the same compound, the IC50 (DYRK1B) was 1.5 µM and the IC50 (CDK1/cyclin B) was over 10 µM.
For `Cc1cccc(-c2c[nH]c3c4c(ccc23)CNC4=O)c1` [8i, 3-(3-Methylphenyl)-6,7-dihydropyrrolo[3,4-g]indol-8(1H)-one], the IC50 (GSK-3) was over 10 µM, the IC50 (DYRK1A) was 2.6 µM and the IC50 (CLK3) was 5.1 µM. It also gave an IC50 (DYRK3) of over 10 µM, an IC50 (CDK5/p25) of over 10 µM and an IC50 (DYRK2) of 3.1 µM. For the same compound, the IC50 (CDK9/cyclin T) was over 10 µM, the IC50 (CLK2) was 0.41 µM and the IC50 (CDK2/cyclin A) was over 10 µM. For the same compound, the IC50 (CLK1) was 0.061 µM, the IC50 (CK1δ/ε) was over 10 µM and the IC50 (CLK4) was 0.14 µM. It also gave an IC50 (DYRK1B) of 4.1 µM and an IC50 (CDK1/cyclin B) of over 10 µM.
